Molecules are shown by their SMILES.

This experiment addresses T1, Recombinant human liver GK1 (GST-GK) (Homo sapiens, UniProt P35557).
T1 construct: made in house; host or cells: E. coli
T1 sequence (P35557 1-466 isoform P35557-2): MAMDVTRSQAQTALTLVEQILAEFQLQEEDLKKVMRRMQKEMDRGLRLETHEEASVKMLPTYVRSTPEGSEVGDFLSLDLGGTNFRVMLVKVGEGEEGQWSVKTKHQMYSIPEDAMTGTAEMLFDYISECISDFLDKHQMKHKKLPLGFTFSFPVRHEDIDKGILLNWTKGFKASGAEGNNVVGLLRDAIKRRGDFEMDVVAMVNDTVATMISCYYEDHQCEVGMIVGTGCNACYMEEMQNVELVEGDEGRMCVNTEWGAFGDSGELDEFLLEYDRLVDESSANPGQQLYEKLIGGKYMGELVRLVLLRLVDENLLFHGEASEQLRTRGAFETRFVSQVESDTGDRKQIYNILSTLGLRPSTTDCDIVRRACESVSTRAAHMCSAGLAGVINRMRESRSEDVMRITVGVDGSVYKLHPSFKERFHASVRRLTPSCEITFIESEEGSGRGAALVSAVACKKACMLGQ
Briefly: In vitro glucokinase activity (G6PDH-coupled NADH generation assay). Details: unit not given here. Conditions: concentration of activator that produced a 50% increase in the activity of GK; 5 mM D-glucose, 30° C., pH 7.1, 10% DMSO. Type of experiment: biochemical. The procedure:
Glucokinase In Vitro Assay Protocol: Glucokinase (GK) was assayed by coupling the production of glucose-6-phosphate to the generation of NADH with glucose-6-phosphate dehydrogenase (G6PDH, 0.75-1 kunits/mg; Boehringer Mannheim, Indianapolis, Ind.) from Leuconostoc mesenteroides as the coupling enzyme:
Recombinant human liver GK1 was expressed in E. coli as a glutathione S-transferase fusion protein (GST-GK) [Liang et al, 1995]and was purified by chromatography over a glutathione-Sepharose 4B affinity column using the procedure provided by the manufacturer (Amersham Pharmacia Biotech, Piscataway, N.J.).
The assay was conducted at 30° C. in a flat bottom 96-well tissue culture plate from Costar (Cambridge, Mass.) with a final incubation volume of 120 μL. The incubation reaction contained the following: 25 mM Hepes buffer (pH 7.1), 25 mM KCl, 5 mM D-glucose, 1 mM ATP, 1.8 mM NAD, 2 mM MgCl2, 1 μM sorbitol-6-phosphate, 1 mM dithiothreitol, test drug or 10% DMSO, ˜7 units/ml G6PDH, and GK (see below). All organic reagents were >98% pure and were from Boehringer Mannheim with the exceptions of D-glucose and Hepes which were from Sigma Chemical Co, St Louis, Mo. Test compounds were dissolved in DMSO and were added to the incubation reaction minus GST-GK in a volume of 12 μL to yield a final DMSO concentration of 10%. This mix was pre-incubated in the temperature controlled chamber of a SPECTRAmax 250 microplate spectrophotometer (Molecular Devices Corporation, Sunnyvale, Calif.) for 10 minutes to allow temperature equilibrium and then the reaction was started by the addition of 20 μL GST-GK.
After addition of enzyme, the increase in optical density (OD) at 340 nm was monitored spectrophotometrically to determine the rate of change (OD340 per min). The GK activity (OD340/min) in control wells (10% DMSO minus GK activators) was compared with the activity in wells containing test GK activators, and the concentration of activator that produced a 50% increase in the activity of GK, i.e., the SC1.5:0.1, was calculated. The table below provides the in vitro glucokinase activity for the compounds in the Examples: […]
For `CC(C)C[C@@H](C(=O)Nc1ccccn1)N1CC2=C(Oc3cccc(Cl)c3C2)C1=O` [Example 3, (S)-2-(8-Chloro-3-oxo-3,9-dihydro-1H-chromeno[2,3-c]pyrrol-2-yl)-4-methyl-pentanoic acid pyridin-2-ylamide], the “SC 1.5:0.1” value came to 4.602.

For `COC(=O)c1ccc(NC(=O)[C@H](CC2CCCCC2)N2CC3=C(Oc4cccc(OC)c4C3)C2=O)nc1` [Example 10, 6-[(S)-3-Cyclohexyl-2-(8-methoxy-3-oxo-3,9-dihydro-1H-chromeno[2,3-c]pyrrol-2-yl)-propionylamino]-nicotinic acid methyl ester], the “SC 1.5:0.1” value came out at 0.302.

On to `COc1cccc2c1CC1=C(O2)C(=O)N([C@@H](CC2CCCCC2)C(=O)Nc2ccc(Cl)cn2)C1` [Example 8, (S)—N-(5-Chloro-pyridin-2-yl)-3-cyclohexyl-2-(8-methoxy-3-oxo-3,9-dihydro-1H-chromeno[2,3-c]pyrrol-2-yl)-propionamide], for which the “SC 1.5:0.1” value stood at 0.292.

`O=C(Nc1ccccn1)[C@H](CC1CCCCC1)N1CC2=C(Oc3cccc(Cl)c3C2)C1=O` [Example 1, (S)-2-(8-Chloro-3-oxo-3,9-dihydro-1H-chromeno[2,3-c]pyrrol-2-yl)-3-cyclohexyl-N-pyridin-2-yl-propionamide]: the “SC 1.5:0.1” value is on record as 1.311.

As to `COc1cccc2c1CC1=C(O2)C(=O)N([C@@H](CC2CCCCC2)C(=O)Nc2nccs2)C1` [Example 9, (S)-3-Cyclohexyl-2-(8-methoxy-3-oxo-3,9-dihydro-1H-chromeno[2,3-c]pyrrol-2-yl)-N-thiazol-2-yl-propionamide], the “SC 1.5:0.1” value was found to be 0.746.

As for `COc1ccc(OC)c2c1CC1=C(O2)C(=O)N([C@@H](CC2CCCCC2)C(=O)Nc2nccs2)C1` [Example 16, (S)-3-Cyclohexyl-2-(5,8-dimethoxy-3-oxo-3,9-dihydro-1H-chromeno[2,3-c]pyrrol-2-yl)-N-thiazol-2-yl-propionamide], the “SC 1.5:0.1” value was found to be 2.439.

As for `O=C(Nc1nccs1)[C@H](CC1CCCCC1)N1CC2=C(Oc3c(Cl)cccc3C2)C1=O` [Example 21, (S)-2-(5-Chloro-3-oxo-3,9-dihydro-1H-chromeno[2,3-c]pyrrol-2-yl)-3-cyclohexyl-N-thiazol-2-yl-propionamide], the “SC 1.5:0.1” value came to 4.181.

`CC(C)C[C@@H](C(=O)Nc1nccs1)N1CC2=C(Oc3c(Cl)cccc3C2)C1=O` [Example 24, (S)-2-(5-Chloro-3-oxo-3,9-dihydro-1H-chromeno[2,3-c]pyrrol-2-yl)-4-methyl-pentanoic acid thiazol-2-ylamide]: the “SC 1.5:0.1” value is reported as 18.957.

With `COc1ccc(OC)c2c1CC1=C(O2)C(=O)N([C@@H](CC2CCCCC2)C(=O)Nc2ccc(Cl)cn2)C1` [Example 15, (S)—N-(5-Chloro-pyridin-2-yl)-3-cyclohexyl-2-(5,8-dimethoxy-3-oxo-3,9-dihydro-1H-chromeno[2,3-c]pyrrol-2-yl)-propionamide], the “SC 1.5:0.1” value is 0.428.

Regarding `COc1cccc2c1CC1=C(O2)C(=O)N([C@@H](CC2CCCCC2)C(=O)Nc2ccccn2)C1` [Example 7, (S)-3-Cyclohexyl-2-(8-methoxy-3-oxo-3,9-dihydro-1H-chromeno[2,3-c]pyrrol-2-yl)-N-pyridin-2-yl-propionamide], the “SC 1.5:0.1” value is reported as 0.333.

In the case of `O=C(Nc1ccccn1)[C@H](CC1CCCCC1)N1CC2=C(Oc3c(Cl)cccc3C2)C1=O` [Example 20, (S)-2-(5-Chloro-3-oxo-3,9-dihydro-1H-chromeno[2,3-c]pyrrol-2-yl)-3-cyclohexyl-N-pyridin-2-yl-propionamide], the “SC 1.5:0.1” value was 2.423.

`COC(=O)c1ccc(NC(=O)[C@H](CC(C)C)N2CC3=C(Oc4c(Cl)cccc4C3)C2=O)nc1` [Example 22, 6-[(S)-2-(5-Chloro-3-oxo-3,9-dihydro-1H-chromeno[2,3-c]pyrrol-2-yl)-4-methyl-pentanoylamino]-nicotinic acid methyl ester]: the “SC 1.5:0.1” value is recorded as 9.858.

`COC(=O)c1ccc(NC(=O)[C@H](CC(C)C)N2CC3=C(Oc4cccc(Cl)c4C3)C2=O)nc1` [Example 6, 6-[(S)-2-(8-Chloro-3-oxo-3,9-dihydro-1H-chromeno[2,3-c]pyrrol-2-yl)-4-methyl-pentanoylamino]-nicotinic acid methyl ester]: the “SC 1.5:0.1” value is given as 3.324.

Take `CC(C)C[C@@H](C(=O)Nc1ccc(Cl)cn1)N1CC2=C(Oc3cccc(Cl)c3C2)C1=O` [Example 4, (S)-2-(8-Chloro-3-oxo-3,9-dihydro-1H-chromeno[2,3-c]pyrrol-2-yl)-4-methyl-pentanoic acid (5-chloro-pyridin-2-yl)-amide]: the “SC 1.5:0.1” value is given as 3.18.

Turning to `COC(=O)c1ccc(NC(=O)[C@H](CC2CCCCC2)N2CC3=C(Oc4c(OC)ccc(OC)c4C3)C2=O)nc1` [Example 17, 6-[(S)-3-Cyclohexyl-2-(5,8-dimethoxy-3-oxo-3,9-dihydro-1H-chromeno[2,3-c]pyrrol-2-yl)-propionylamino]-nicotinic acid methyl ester], the “SC 1.5:0.1” value came to 0.219.

With `COC(=O)c1ccc(NC(=O)[C@H](CC(C)C)N2CC3=C(Oc4cccc(OC)c4C3)C2=O)nc1` [Example 12, 6-[(S)-2-(8-Methoxy-3-oxo-3,9-dihydro-1H-chromeno[2,3-c]pyrrol-2-yl)-4-methyl-pentanoylamino]-nicotinic acid methyl ester], the “SC 1.5:0.1” value turned out to be 0.906.

As to `CC(C)C[C@@H](C(=O)Nc1ccccn1)N1CC2=C(Oc3c(Cl)cccc3C2)C1=O` [Example 23, (S)-2-(5-Chloro-3-oxo-3,9-dihydro-1H-chromeno[2,3-c]pyrrol-2-yl)-4-methyl-pentanoic acid pyridin-2-ylamide], the “SC 1.5:0.1” value is 11.865.

Take `COc1ccc(OC)c2c1CC1=C(O2)C(=O)N([C@@H](CC(C)C)C(=O)Nc2ccc(Cl)cn2)C1` [Example 14, (S)-2-(5,8-Dimethoxy-3-oxo-3,9-dihydro-1H-chromeno[2,3-c]pyrrol-2-yl)-4-methyl-pentanoic acid (5-chloro-pyridin-2-yl)-amide]: the “SC 1.5:0.1” value came to 0.911.

With `COc1ccc(OC)c2c1CC1=C(O2)C(=O)N([C@@H](CC(C)C)C(=O)Nc2ccccn2)C1` [Example 18, (S)-2-(5,8-Dimethoxy-3-oxo-3,9-dihydro-1H-chromeno[2,3-c]pyrrol-2-yl)-4-methyl-pentanoic acid pyridin-2-ylamide], the “SC 1.5:0.1” value amounted to 2.532.

`COc1cccc2c1CC1=C(O2)C(=O)N([C@@H](CC(C)C)C(=O)Nc2nccs2)C1` [Example 11, (S)-2-(8-Methoxy-3-oxo-3,9-dihydro-1H-chromeno[2,3-c]pyrrol-2-yl)-4-methyl-pentanoic acid thiazol-2-ylamide]: the “SC 1.5:0.1” value worked out at 8.123.

In the case of `COc1cccc2c1CC1=C(O2)C(=O)N([C@@H](CC2CCCCC2)C(=O)Nc2ccn(C[C@@H](O)CO)n2)C1` [Example 25, (S)-3-Cyclohexyl-N-[1-((R)-2,3-dihydroxy-propyl)-1H-pyrazol-3-yl]-2-(8-methoxy-3-oxo-3,9-dihydro-1H-chromeno[2,3-c]pyrrol-2-yl)-propionamide], the “SC 1.5:0.1” value stood at 0.507.

With `COC(=O)c1ccc(NC(=O)[C@H](CC(C)C)N2CC3=C(Oc4c(OC)ccc(OC)c4C3)C2=O)nc1` [Example 19, 6-[(S)-2-(5,8-Dimethoxy-3-oxo-3,9-dihydro-1H-chromeno[2,3-c]pyrrol-2-yl)-4-methyl-pentanoylamino]-nicotinic acid methyl ester], the “SC 1.5:0.1” value was 0.803.

As to `O=C(Nc1nccs1)[C@H](CC1CCCCC1)N1CC2=C(Oc3cccc(Cl)c3C2)C1=O` [Example 2, (S)-2-(8-Chloro-3-oxo-3,9-dihydro-1H-chromeno[2,3-c]pyrrol-2-yl)-3-cyclohexyl-N-thiazol-2-yl-propionamide], the “SC 1.5:0.1” value came to 4.051.

Turning to `COc1ccc(OC)c2c1CC1=C(O2)C(=O)N([C@@H](CC2CCCCC2)C(=O)Nc2ccccn2)C1` [Example 13, (S)-3-Cyclohexyl-2-(5,8-dimethoxy-3-oxo-3,9-dihydro-1H-chromeno[2,3-c]pyrrol-2-yl)-N-pyridin-2-yl-propionamide], the “SC 1.5:0.1” value is recorded as 0.304.

(Values after US8178689B2, “Tricyclic compounds” (Hoffman-La Roche Inc., priority 2010, dated 2012).)
